Results taken from US20110028400A1, “SULFATED UNSATURATED DISACCHARIDIC CHONDROITIN SULFATE IN CONNECTIVE TISSUE PROTECTION AND REPAIR” (NESTEC S.A., priority 2008, published 2011).
Counter-ions that a name gives are not always drawn.

Assays:
[1] = system: explants of articular cartilage; assay: IL1β-induced GAG (35S) release from cultured bovine articular cartilage explants; assay type: cell-based; settings: for slowing down cytokine-induced cartilage destruction in vitro: comparison among chondroitin disaccharides and higher molecular weight forms
Excerpt: It was investigated here whether normal commercially available chondroitin sulphate and different low molecular weight forms of chondroitin sulphate including disaccharides could inhibit the degradation of aggrecan in cultured explants of articular cartilage. Explants from healthy bovine articular cartilage were put in culture and loaded with S^35. S^35 is incorporated in the glycosaminoglycan chains of the aggrecan molecules of the cartilage and its release in the media is considered as a surrogate marker of glycosaminoglycan release and aggrecan catabolism. However, explants from healthy bovine articular cartilage naturally display a very low catabolic activity which is not ideal to test the anti-catabolic activity of potential bioactives. To improve the sensitivity of the assay, the explants were cultured in presence of IL1β, a pro-inflammatory cytokine, known to act as a potent inducer of MMP and aggrecanase activities. The different low molecular weight forms of chondroitin sulphate were added to the culture media together with IL1β to see whether they can decrease the IL1β-induced aggrecan catabolism. In addition, the effects of the low molecular weight forms of chondroitin sulphate on IL1β-induced NO production were also investigated. Nitric oxide is a reactive oxygen species known to participate in the progression of osteoarthritis.
(§1) The articular cartilage explants were dissected out of the metacarpophalangeal joint of old cows (8-10 years). The skin was removed from the feet. The articulation was opened transversally. Intraarticular ligaments were transected. […] Under the hood, similar quantities of cartilage were distributed between the wells of a 24-wells plate containing 500 μl of medium (DMEM+20% FBS, 1% penicillin/streptomycin, 0.1% gentamycin) per well. […]
The following protocol is based on Campbell et al., Arch Biochem Biophys 234(1): 275-289 and Hascall V C et al., Arch Biochem Biophys 224(1): 206-223. […] After 72 hours, several washes were performed to eliminate the non-incorporated radioactivity. The explants were then treated for 72 hours, after which the supernatants were collected and the amount of radioactivity released in the medium was measured with a beta counter, as a marker of GAG catabolism. The radioactivity present in the explants was also measured and used to normalize the amount of radioactivity released into the media. The radioactivity was expressed in DPM ([…] per minute) and the GAG release is assessed by the following formula:
GAG release=radioactivity in the supernatants/(radioactivity in the supernatants+radioactivity in the explants)

[2] = system: explants of articular cartilage; assay: IL1β-induced NO production in cultured bovine articular cartilage explants; assay type: cell-based; settings: 500 μg/ml, with 50 ng/ml IL1β, 72 hours, 4 experiments
Excerpt: It was investigated here whether normal commercially available chondroitin sulphate and different low molecular weight forms of chondroitin sulphate including disaccharides could inhibit the degradation of aggrecan in cultured explants of articular cartilage. Explants from healthy bovine articular cartilage were put in culture and loaded with S^35. S^35 is incorporated in the glycosaminoglycan chains of the aggrecan molecules of the cartilage and its release in the media is considered as a surrogate marker of glycosaminoglycan release and aggrecan catabolism. However, explants from healthy bovine articular cartilage naturally display a very low catabolic activity which is not ideal to test the anti-catabolic activity of potential bioactives. […]
as §1, with “years).” for “years). The skin was removed from the feet. The articulation was opened transversally. Intraarticular ligaments were transected.”
For NO measurements a protocol based on Gilliam et al., Anal Biochem 212(2): 359-365 was used. […] After ten minutes, absorbance was measured at 538 nm. To quantify the amount of NO in the supernatants, a standard curve was prepared using sodium nitrite (0-60 μM).

[3] = rat intestinal loop model, bioavailability; assay type: in vivo
knee OA = settings: cited from earlier work
knee synovial fluids = settings: 10 days of 800 mg once a day; cited from earlier work
[4] = system: cartilage damages and proteoglycan loss; settings: 20 mg/kg body weight/day, 11 days before to 21 days after chymopapain injection; cited from earlier work
[5] = system: proteoglycan depletion in cartilage; settings: 100 and 300 mg/kg body weight/day, starting 2 weeks before bradikinin injections; cited from earlier work

CC(=O)N[C@H]1C(O)O[C@H](CO)[C@H](OS(=O)(=O)O)[C@@H]1O (stereo partly shown) [GalNac 4S, 4 sulfated N-acetylgalactosamine]
IL1β-induced GAG release (percentage of radioactivity release) ([1]; dose range 500-50-5 μg/ml, with 50 ng/ml IL1β, 72 hours, FIG. 2): no effect

CC(=O)N[C@H]1C(O)O[C@H](CO)[C@H](OS(=O)(=O)O)[C@@H]1O[C@@H]1OC(C(=O)O)=C[C@H](O)[C@H]1O (stereo partly shown) [Δdi4S, 4-sulfated unsaturated disaccharidic chondroitin sulfate]
amount of NO in the supernatants compared to IL1β alone [2]: significantly (p<0.05) decreased
amount of GAG released in the supernatants compared to IL1β alone ([1]; 500 μg/ml, with 50 ng/ml IL1β, 72 hours, 4 independent experiments): significantly (p<0.05) decreased
slowing down cytokine-induced cartilage destruction in vitro [1]: by far the most effective compound
bioavailability [3]: more bioavailable than regular high molecular weight chondroitin sulfate

Chondroitin sulfate [CS]
slowing down cytokine-induced cartilage destruction in vitro [1]: did not have any significant effect
improvement of the Lesquesne index versus diclofenac (knee OA; 400 mg of CS 3 times a day, double-blind RCT): slower than 50 mg of diclofenac
mean and minimum joint space width and joint space surface area on X-rays (knee OA; 800 mg CS, one year double-blind placebo-controlled RCT): decreased significantly in the placebo group but not in the 800 mg CS group
joint space narrowing (knee OA; 800 mg once a day, 2-year double-blind RCT, placebo mean joint space loss 0.14 mm): prevented joint space narrowing
function versus placebo (knee OA; 1000 mg per day, one trial): did not improve function better than placebo
osteoarthritic symptoms, meta-analyses (knee OA; 3 meta-analyses): superior to placebo
spontaneous pain and mobility versus placebo (knee OA; 6 of 7 double-blind placebo-controlled RCTs, 3 to 24 months, knee OA): more efficient than placebo
pain and mobility, dose comparison (knee OA; 800 and 1200 mg once a day): more effective on pain and mobility than placebo or 200 mg
mobility, 1200 mg once a day versus 400 mg three times a day (knee OA; both superior to placebo): No statistical significant difference
time before patients detect a significant difference in pain and mobility (knee OA; human, in vivo): at least 2 weeks
time required to reach full symptom relief (knee OA; human, in vivo): up to 2 months
mobility after intermittent treatment (knee OA; two 3 month-long periods in a year, 800 mg once a day): lasting effects by improving mobility compared to placebo
persistence of effects after termination of treatment (knee OA; versus diclofenac): persisted longer than diclofenac effects
activities of collagenase, phospholipase A2 and N-acetylglucosaminidase in knee synovial fluids (knee synovial fluids): decreasing
viscosity and hyaluronate concentration in knee synovial fluids (knee synovial fluids): significantly increased
cartilage damages and proteoglycan loss [4]: decreased cartilage damages and proteoglycan loss

chondroitin-6 sulfate
proteoglycan depletion in cartilage [5]: reduced or prevented
